Molecules are shown by their SMILES. Where two headings read alike, the source gives them in different places.

Data set [1] can be described thus: In situ brain perfusion. The class given is in vivo, mice. As to conditions: 2-minute perfusion, 10 μM.
Protocol: To evaluate the permeability across the blood-brain barrier of WDR5 inhibitors in the absence of hepatic clearance, we utilized the in situ brain perfusion technique. Mice were anesthetized via i.p. injection of 100 mg/kg ketamine and 80 mg/kg xylazine. The peritoneal cavity was exposed, the descending aorta was clamped, and the right atrium was cut to prevent venous return to the heart. A 28G butterfly winged infusion catheter (Terumo Medical Care Solutions) was inserted into the left ventricle and mice were perfused with a modified physiological buffer containing 10 μM WDR5 inhibitor ([99]). […] To determine brain uptake of WDR5 inhibitors, mice were perfused for 120 seconds. The experiment was concluded by decapitation of the mouse. Following termination, the brain was rapidly removed and placed on ice. Inhibitor concentration in both brain and blood was determined by liquid chromatography tandem mass spectroscopy (Q2 Solutions). The unidirectional uptake transfer constant (Kin) was calculated by the following relationship ([100]):
Where Qbr is the concentration of WDR5 inhibitor in brain (ng/g) corrected for residual inhibitor remaining in cerebrovasculature at the end of the perfusion time frame, Cpf is the perfusion fluid concentration of WDR5 inhibitor (ng/mL), T is the time length of the perfusion experiment, and V0 is the vascular volume of the WDR5 inhibitor (mL/g).
Data set [2] relates to L1 CSCs. Put plainly: 7-day CTG viability assay (GI50, cross-titrations, irradiation) in L1. The class given is cell-based, human. As to conditions: for GI50: Homo sapiens; for log(GI50): L1 + RAD (2 Gy). Here is the method: For GI50 determination, compounds were stamped in technical triplicate, while for synergy cross-titrations dose-response matrices were prepared in technical duplicate. Different CSC lines, grown in suspension as spheroids, were split with Accutase and seeded directly on top of the prestamped compounds (50 μL of NBMc and 700 cells/well). The outer 4 rows (A,B and O,P row IDs) and 4 columns (1,2 and 23,24 column IDs) were filled with 80 μL of PBS to minimize evaporation. Cells were incubated with compounds for 7 days at 37°C/5% CO2 prior to the addition of 25 μL/well Cell-Titer Glo (Promega) and luminescence quantification on a Revvity EnVision plate reader. […] For the cross-titrations of 2 compounds, synergy scores were calculated using the MuSyC webserver ([79]). […]
antagonist (p53 activator) RG7112 following either 0 Gy or 2 Gy irradiation. Mean values are presented from a single biological replicate conducted in technical triplicate. Follow- […]
Cell viability was quantified as described in the Materials and Methods four days post-irradiation (seven days total). The

Data set [3] can be described thus: Plasma protein binding (equilibrium dialysis), rat. As to conditions: read-out: PPB % fu (r). The class given is in vitro ADME. Here is the method: both the protein side and buffer side of the membrane after incubation and the parent
compound was quantified. […]
Background: Equilibrium dialysis compares concentrations on both sides of a semipermeable membrane.

Data set [4] in a line: Brain homogenate binding. In kind it is in vitro ADME. As to conditions: human brain homogenate; read-out: BHB %fu (h). Here is the method:
both the protein side and buffer side of the membrane after incubation and the parent compound was quantified. Brain homogenate binding was performed similarly as above using human brain homogenate, equilibrium dialysis, and LC-MS/MS methods. Fraction unbound is calculated by dividing the concentration of the buffer side by the concentration of the matrix side (plasma or brain). […]

Data set [5] addresses WDR5 (Homo sapiens, UniProt P61964). The data set can be described thus: WDR5 TR-FRET binding assay (displacement of labeled WIN-site peptide). Details: human WDR5 residues Ser22-Cys334 were codon optimized for E. coli; made in house; host or cells: E. coli T7 Express lysY/Iq (New England Biolabs), pET27 plasmid. Here is the method:
Recombinant human WDR5 was cloned, expressed, and purified as previously described ([37]). Briefly, human WDR5 residues Ser22-Cys334 were codon optimized for E. coli and cloned into a pET27 plasmid downstream of a SUMO-protease cleavable NT-His6-SUMO fusion. […] Induced cultures were pelleted; resuspended in 1X PBS pH 7.4, 300 mM NaCl, 20 mM imidazole, 5 mM β-Me, and 10% glycerol; and lysed via sonication. […] His-SUMO-WDR5 used in the TR-FRET assay was further purified via size exclusion chromatography using 1X PBS pH 7.4, 300 mM NaCl, 5 mM β-Me running buffer, concentrated to 1–2 mg/mL, aliquoted, and froze at –80°C for storage. Tag free WDR5 used for crystallography was dialyzed overnight with SUMO protease and passed over an NiNTA column to remove the His6-SUMO tag. Tag free WDR5 was further purified via size exclusion chromatography using 20 mM HEPES pH 7.0, 250 mM NaCl, and 5 mM DTT; concentrated to 10 mg/mL; aliquoted; and frozen at –80°C for storage.
Inhibitor Ki values were measured using a previously published competitive TR-FRET assay ([37]). […] The reported Ki values were calculated from at least 3 biological replicates completed in technical quadruplicate.

Data set [6] concerns WIN-site dependent transcripts. The data set can be described thus: Bulk RNA-seq in L0 and DI318 CSCs. In kind it is cell-based, human. As to conditions: for GSEA NES against MV4:11 C16-regulated gene set: 72 hours. Here is the method:
Bulk RNA-seq was performed at MedGenome Inc. using the Illumina Stranded mRNA Library Prep Kit and sequencing at 20M paired-end read-depth on a NovaSeq 6000 (PE100). The raw bulk RNA-seq paired end (R1-R2, 2 × 100 bp) sequencing fastq data was first subjected to the quality check analysis using FastQC (v0.11.9). […] Further, quality filtered reads were subjected to the alignment employing Rsubread (v2.16.1) align function with human genome reference build GRCh38 ([90], [91]). The mapped binary alignment map (BAM) files were indexed using samtools (v1.16.1) ([92]), and gene-wise read counts were summarized applying featureCounts function from Rsubread, where inbuilt hg38 annotation was used and duplicated reads were ignored. Furthermore, gene symbols were obtained using org.Hs.eg.db (v3.15.0) annotation package operating on ENTREZIDs from count table. Respectively, edgeR (v3.38.4) and limma-voom (v3.52.4) packages were employed to accomplish differential transcriptional regulation analysis ([93]–[95]). Briefly, constructed DGEList object (DGEList function), design matrix (model.design), and contrast matrix (makeContrasts) was defined, filtered low counts (filterByExpr), and trimmed mean of M-values (TMM) normalization (calcNormFactors) was done. Later, log2 counts per million reads (logCPM) transformation, model fitting and differential expression analysis was performed using limma-voom (voomWithQualityWeights, lmFit, contrasts.fit), empirical Bayes moderated t-statistics (eBayes), and TREAT method (treat, decideTests, topTreat) considering log fold-change (logFC) (0.5) threshold. Genes with |log2FC| > 0.5 and FDR adjusted P value cutoff (≤0.01) were considered as differentially expressed genes (DEGs). Gene ontology (GO) and pathway enrichment analysis was accomplished implementing ShinyGO (v0.77) ([96]). DEGs volcano plots were depicted utilizing EnhancedVolcano (v1.16.0) package.

In data set [7] the test system is 5 different CSC models. Put plainly: 7-day CTG viability / cross-titration, panel of 5 CSC models. In kind it is cell-based, human. As to conditions: Homo sapiens; 7-day assay, 5 CSC models. Here is the method: For GI50 determination, compounds were stamped in technical triplicate, while for synergy cross-titrations dose-response matrices were prepared in technical duplicate. Different CSC lines, grown in suspension as spheroids, were split with Accutase and seeded directly on top of the prestamped compounds (50 μL of NBMc and 700 cells/well). The outer 4 rows (A,B and O,P row IDs) and 4 columns (1,2 and 23,24 column IDs) were filled with 80 μL of PBS to minimize evaporation. Cells were incubated with compounds for 7 days at 37°C/5% CO2 prior to the addition of 25 μL/well Cell-Titer Glo (Promega) and luminescence quantification on a Revvity EnVision plate reader. […] For the cross-titrations of 2 compounds, synergy scores were calculated using the MuSyC webserver ([79]).

Setting [8] is: L1, 0 Gy, read-out: log(GI50) (converted).
Setting [9] is: L1, 7-day CTG, pGI50 = −log10[GI50(M)], read-out: pGI50 (converted).

As for `COc1cc(Cn2nnc3c2CCc2c-3cc(Cn3ccnc3C)cc2C2CC2)ccc1F` [C3TD343], in data set [1], the “unidirectional brain uptake constant Kin” value was > 50 × 10^–4 mL/s/g. Further, the values for the GI50 in data set [2] (setting [8]) and in data set [2] (setting [9]) were 7.94e-06 M and 8.32e-06 M, respectively. In addition, the “log(GI50)” value in data set [2] is -5.1 M. Also, the figures for the fraction unbound at […] in data set [3] and in data set [4] were 0.027 and 0.005, respectively. In addition, affinity in data set [5] was put at a Ki of 5.9 ± 0.3 nM.

Turning to `COc1cc(CN2CCc3c(cc(Cn4ccn(C)c4=N)cc3-c3ccc(F)cc3C)C2=O)cc(OC)c1` [C16, reference compound], the “unidirectional brain uptake constant Kin” value in data set [1] is given as < 5 × 10^–4 mL/s/g. Further, the “GSEA NES against MV4:11 C16-regulated gene set” value is recorded as “–2.5” in data set [6] (DI318, 200 nM) and “–2.0” in data set [6] (L0, 200 nM). Besides, the GI50 in data set [2] (setting [8]) was 1.26e-05 M; in data set [2] (setting [9]), 1.26e-05 M; in data set [7], 1 to 5 µM. Further, the “log(GI50)” value in data set [2] was -4.9 M. Moreover, in data set [3], the fraction unbound at […] stood at 0.008. Further, the Ki (usually a dissociation constant, usually derived from enzyme kinetics or from competition with a known ligand) in data set [5] was determined as 0.03 ± 0.01 nM.

On to `COc1cc(Cn2nnc3c2CCc2c(-c4cn(C)nc4C(F)(F)F)cc(Cn4ccnc4C)cc2-3)cc(OC)c1` [C3TD078], for which the “C16 DEGs also downregulated by C3TD078” value in data set [6] (DI318, 200 nM, 72 hours (118/150)) turned out to be 79%; in data set [6] (L0, 200 nM, 72 hours (91/102)), 89%. Moreover, the GI50 in data set [2] (setting [8]) is 5.01e-06 M; in data set [2] (setting [9]), 5.01e-06 M; in data set [7], 1 to 5 µM. In data set [2], the “log(GI50)” value is reported as -5.3 M. Besides, the fraction unbound at […] in data set [4] stood at 0.004. In addition, the Ki in data set [5] came out at 0.03 ± 0.002 nM.
